# Test results published in article PMC10490032, “From Monoamine Oxidase Inhibition to Antiproliferative Activity: New Biological Perspectives for Polyamine Analogs” (Molecules, 2023).
# Assays:
# human recombinant MAO B = biological target: T1, human recombinant MAO B (Homo sapiens, UniProt P27338); test: MAO B inhibition, kynuramine assay (4-hydroxyquinoline fluorescence); conditions: for Reversibility of MAO B inhibition: 5 μM compound for 25 min, diluted 50 times, 300 μM kynuramine; for Mode of inhibition of MAO B: Lineweaver–Burk plots / global fit (compound 7: Figure S1); for Time dependence of MAO B inhibition (Vo/VI ratio): pre-incubation 0 to 30 min with 2.5 μM compound
# T1 sequence (P27338 1-520): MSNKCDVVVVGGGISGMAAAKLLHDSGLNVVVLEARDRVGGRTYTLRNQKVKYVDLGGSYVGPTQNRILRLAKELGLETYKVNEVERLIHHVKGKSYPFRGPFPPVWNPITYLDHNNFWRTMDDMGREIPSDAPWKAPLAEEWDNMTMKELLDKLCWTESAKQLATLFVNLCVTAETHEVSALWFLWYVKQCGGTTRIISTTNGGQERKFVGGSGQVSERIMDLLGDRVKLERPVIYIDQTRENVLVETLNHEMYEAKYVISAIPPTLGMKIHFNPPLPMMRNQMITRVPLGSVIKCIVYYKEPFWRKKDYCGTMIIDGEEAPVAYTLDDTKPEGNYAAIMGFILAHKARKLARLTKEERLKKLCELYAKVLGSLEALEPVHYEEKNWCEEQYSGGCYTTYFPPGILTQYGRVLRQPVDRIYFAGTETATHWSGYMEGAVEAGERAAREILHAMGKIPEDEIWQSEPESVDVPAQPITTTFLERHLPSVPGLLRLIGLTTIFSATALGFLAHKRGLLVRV
# [1] = test system: LN-229 glioblastoma cell line; test: Inhibition growth assay, Trypan blue exclusion; type: cell-based, human; conditions: LN-229, 48 h of incubation, mean ± SD of five independent experiments in duplicate
# Excerpt: On this basis, we investigated the antiproliferative effect of compounds 1–7 on LN-229, a human glioblastoma cell line. Compound 1 and the well-known antitumor drug doxorubicin were taken as references. […] The data in Table 3 support the lack of cytotoxicity of compound 1.
# The LN-229 (human glioblastoma) was purchased from the American Type Culture Collection (ATCC) and cultured in DMEM (D2902, Sigma Chemical Co., St. Louis, MO, USA) supplemented with 3.5 g/L of glucose and 5% heat-inactivated fetal calf serum (FCS) (F7524, Sigma Chemical Co.), respectively. A total of 100 U/mL of penicillin, 100 μg/mL of streptomycin, and 0.25 μg/mL of amphotericin B (Sigma Chemical Co.) were added to the medium. Cells were cultured at 37 °C in a humidified atmosphere incubator containing 5% carbon dioxide in air.
# Cells (3–6 × 10^4/well) were seeded into a 24-well cell culture plate; after 24 h, different concentrations of the test compounds or reference drug were added. After 48 h of incubation in standard conditions, the cell viability was determined by using a Trypan blue exclusion assay. Briefly, cells were detached by using a […] and 0.3 mM EDTA solution in PBS and stained with 0.1% Trypan blue solution in PBS. Unstained viable cells were immediately counted in a Burker chamber. The percentage of viable cells was calculated with respect to the untreated control culture. […] The goodness of the fit was expressed by the r^2 coefficient, and the best fit report included the analysis of variance corrected for the mean of the observations with the p values (p < 0.005 for all the tested compounds). Data are the means ± SD of at least five independent experiments in duplicate.
# [2] = test system: MAO activity in LN-229 lysates; test: MAO activity in LN-229 cell lysates, kynuramine assay; conditions: for Residual MAO activity in lysates: fraction of control
# human recombinant MAO A = biological target: T2, human recombinant MAO A (Homo sapiens, UniProt P21397); test: MAO A inhibition, kynuramine assay (4-hydroxyquinoline fluorescence); conditions: for Reversibility of MAO A inhibition: 5 μM compound for 25 min, diluted 50 times, 300 μM kynuramine; for Mode of inhibition of MAO A: Lineweaver–Burk plots / global fit; for Time dependence of MAO A inhibition (Vo/VI ratio): pre-incubation 0 to 30 min with 2.5 μM compound
# T2 sequence (P21397 1-527): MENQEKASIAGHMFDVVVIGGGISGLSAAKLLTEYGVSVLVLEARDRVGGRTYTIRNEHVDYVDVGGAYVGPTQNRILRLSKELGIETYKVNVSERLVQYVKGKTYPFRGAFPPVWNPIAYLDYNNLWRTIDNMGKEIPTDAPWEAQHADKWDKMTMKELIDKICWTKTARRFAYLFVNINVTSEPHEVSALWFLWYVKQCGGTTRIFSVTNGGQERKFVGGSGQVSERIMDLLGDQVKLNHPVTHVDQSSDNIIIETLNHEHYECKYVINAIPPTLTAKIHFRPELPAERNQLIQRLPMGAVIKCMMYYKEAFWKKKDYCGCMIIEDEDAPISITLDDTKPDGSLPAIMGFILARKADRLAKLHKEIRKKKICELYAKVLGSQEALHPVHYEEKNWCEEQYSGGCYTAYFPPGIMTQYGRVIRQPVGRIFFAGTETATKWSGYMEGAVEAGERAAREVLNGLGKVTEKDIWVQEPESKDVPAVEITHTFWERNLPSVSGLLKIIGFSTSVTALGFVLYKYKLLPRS
# human VAP-1 [3] = biological target: T3, human VAP-1 (Homo sapiens, UniProt Q16853); test: VAP-1 amine oxidase activity, Amplex Red/horseradish peroxidase assay, benzylamine as substrate
# T3 sequence (Q16853 1-763): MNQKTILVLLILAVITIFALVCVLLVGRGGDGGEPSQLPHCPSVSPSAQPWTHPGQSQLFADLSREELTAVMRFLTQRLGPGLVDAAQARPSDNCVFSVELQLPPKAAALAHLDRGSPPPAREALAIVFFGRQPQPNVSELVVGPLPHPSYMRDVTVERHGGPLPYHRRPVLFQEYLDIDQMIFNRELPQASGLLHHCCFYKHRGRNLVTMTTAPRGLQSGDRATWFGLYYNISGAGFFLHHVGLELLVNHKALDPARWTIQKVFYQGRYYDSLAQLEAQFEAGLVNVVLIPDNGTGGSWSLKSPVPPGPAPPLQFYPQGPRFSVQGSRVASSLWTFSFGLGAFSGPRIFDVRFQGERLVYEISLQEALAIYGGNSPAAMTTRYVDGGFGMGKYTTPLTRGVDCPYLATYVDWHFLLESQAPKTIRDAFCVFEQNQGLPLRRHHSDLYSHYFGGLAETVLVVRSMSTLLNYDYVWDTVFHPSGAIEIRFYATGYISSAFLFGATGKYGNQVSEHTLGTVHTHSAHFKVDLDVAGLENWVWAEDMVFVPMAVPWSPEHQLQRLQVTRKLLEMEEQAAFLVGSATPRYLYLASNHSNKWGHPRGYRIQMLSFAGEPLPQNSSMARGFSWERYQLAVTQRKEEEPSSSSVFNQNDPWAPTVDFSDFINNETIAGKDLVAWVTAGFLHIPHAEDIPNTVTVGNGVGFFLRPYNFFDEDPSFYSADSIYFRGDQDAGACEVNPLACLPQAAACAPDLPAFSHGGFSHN
# human VAP-1 [4] = biological target: T3, human VAP-1; design: Biothie Therapies Cor; (Turku, Finland), gift; method as in PMID 21858471, PMID 30829081; conditions: previous studies ref 35, 40; cited from earlier work
# murine SMOX = murine SMOX (Mus musculus, UniProt Q99K82); design: made in house; host or cells: E. coli BL21 DE3; conditions: previous studies ref 35, 40; cited from earlier work
# Sequence of murine SMOX (Q99K82 whole entry): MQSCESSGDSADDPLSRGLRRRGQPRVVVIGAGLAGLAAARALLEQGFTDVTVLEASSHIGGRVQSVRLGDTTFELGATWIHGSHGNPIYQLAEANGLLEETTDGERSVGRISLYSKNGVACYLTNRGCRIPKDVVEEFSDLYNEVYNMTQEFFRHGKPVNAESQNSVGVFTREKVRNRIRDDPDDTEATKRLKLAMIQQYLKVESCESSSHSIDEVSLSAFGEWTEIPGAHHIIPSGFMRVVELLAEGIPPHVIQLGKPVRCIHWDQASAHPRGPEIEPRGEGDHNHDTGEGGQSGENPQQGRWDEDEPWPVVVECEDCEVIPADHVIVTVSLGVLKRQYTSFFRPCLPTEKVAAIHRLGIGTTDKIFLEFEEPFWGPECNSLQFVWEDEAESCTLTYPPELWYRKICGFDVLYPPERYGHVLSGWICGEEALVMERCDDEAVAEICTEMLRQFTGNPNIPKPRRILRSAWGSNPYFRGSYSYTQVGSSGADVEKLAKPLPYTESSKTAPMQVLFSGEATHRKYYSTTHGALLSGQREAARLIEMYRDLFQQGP
# [5] = KI (inhibition constant for the free enzyme) vs. MAO B, global fit, mixed model, inhibitor 0.25–2 μM, kynuramine varied
# [6] = KIES (dissociation constant for the enzyme–substrate complex) vs. MAO B, global fit, mixed model, inhibitor 0.25–2 μM, kynuramine varied
# [7] = MAO B Ki, human recombinant MAO B, kynuramine 10 μM, from slope of Vo/VI vs compound concentration (1.25–40 μM), mean ± S.D.
# [8] = kynuramine 20 μM, compound 0.05–8 μM
# [9] = KI (inhibition constant for the free enzyme) vs. MAO A, global fit, mixed model, inhibitor 0.25–2 μM, kynuramine varied
# [10] = KIES (dissociation constant for the enzyme–substrate complex) vs. MAO A, global fit, mixed model, inhibitor 0.25–2 μM, kynuramine varied
# [11] = MAO A Ki, human recombinant MAO A, kynuramine 10 μM, from slope of Vo/VI vs compound concentration (1.25–40 μM), mean ± S.D.
# [12] = inhibitor 5 nM, 15 min pre-incubation, 300 μM kynuramine
# [13] = inhibitor 0.2 μM, 20 μM kynuramine
structure (smiles),measurement,setting,value
COc1ccccc1CNCCCCCCNc1ccc(CCc2ccc(NCCCCCCNCc3ccccc3OC)cc2)cc1 [Compound 4],Reversibility of MAO B inhibition,human recombinant MAO B,full reversibility
same,Ki,human recombinant MAO B; [5],310 ± 50 nM
same,Ki,human recombinant MAO B; [6],15000 ± 2000 nM
same,Mode of inhibition of MAO B,human recombinant MAO B,mainly competitive/mixed
same,Ki,human recombinant MAO B; [7],300 ± 100 nM
same,Time dependence of MAO B inhibition (Vo/VI ratio),human recombinant MAO B; kynuramine 10 μM,no time dependence of the inhibition was observed
same,GI50,"[1]; Homo sapiens, LN-229, 48 h",< 1000 nM
same,GI50,[1],900 ± 200 nM
same,Effect on MAO activity in LN-229 lysates,[2]; [8],not affected
same,Reversibility of MAO A inhibition,human recombinant MAO A,full reversibility
same,Ki,human recombinant MAO A; [9],620 ± 110 nM
same,Ki,human recombinant MAO A; [10],11000 ± 2000 nM
same,Mode of inhibition of MAO A,human recombinant MAO A,mainly competitive/mixed
same,Ki,human recombinant MAO A; [11],900 ± 200 nM
same,Time dependence of MAO A inhibition (Vo/VI ratio),human recombinant MAO A; kynuramine 10 μM,no time dependence of the inhibition was observed
"C#CCN(C)Cc1ccccc1 [Pargyline, pargyline]",Residual MAO activity in lysates,"[2]; inhibitor 0.5 mM, 15 min pre-incubation, 300 μM kynuramine",0.03 ± 0.02
same,Residual activity in lysates after pre-incubation,"[2]; pargyline pre-incubation 15 min, kynuramine 300 μM",about 3%
COc1ccccc1CNCCCCCCN1Cc2ccc3c4c(ccc(c24)C1)CN(CCCCCCNCc1ccccc1OC)C3 [Compound 6],Ki,human recombinant MAO B; [7],27000 ± 4000 nM
same,GI50,"[1]; Homo sapiens, LN-229, 48 h",2000 ± 900 nM
same,Ki,human recombinant MAO A; [11],37000 ± 4000 nM
"COc1cccc2c1C(=O)c1c(O)c3c(c(O)c1C2=O)C[C@@](O)(C(=O)CO)C[C@@H]3O[C@H]1C[C@H](N)[C@H](O)[C@H](C)O1 [DOXO, doxorubicin, reference compound]",GI50,"[1]; Homo sapiens, LN-229, 48 h",12 ± 4 nM
COc1ccccc1CNCCCCCC(=O)Nc1ccc(CCc2ccc(NC(=O)CCCCCNCc3ccccc3OC)cc2)cc1 [Compound 5],Ki,human VAP-1 [3],~50000 nM
same,Reversibility of MAO B inhibition,human recombinant MAO B,full reversibility
same,Ki,human recombinant MAO B; [5],160 ± 40 nM
same,Ki,human recombinant MAO B; [6],6000 ± 1000 nM
same,Mode of inhibition of MAO B,human recombinant MAO B,mainly competitive/mixed
same,Ki,human recombinant MAO B; [7],200 ± 100 nM
same,Time dependence of MAO B inhibition (Vo/VI ratio),human recombinant MAO B; kynuramine 10 μM,no time dependence of the inhibition was observed
same,GI50,"[1]; Homo sapiens, LN-229, 48 h",< 1000 nM
same,GI50,[1],800 ± 100 nM
same,Effect on MAO activity in LN-229 lysates,[2]; [8],concentration-dependent inhibition
same,Ki,"[2]; read-out: Ki for MAO activity in LN-229 lysates, kynuramine 20 μM, compound 0.05–8 μM",2000 nM
same,Reversibility of MAO A inhibition,human recombinant MAO A,full reversibility
same,Ki,human recombinant MAO A; [9],620 ± 90 nM
same,Ki,human recombinant MAO A; [10],14000 ± 2000 nM
same,Mode of inhibition of MAO A,human recombinant MAO A,mainly competitive/mixed
same,Ki,human recombinant MAO A; [11],600 ± 100 nM
same,Time dependence of MAO A inhibition (Vo/VI ratio),human recombinant MAO A; kynuramine 10 μM,no time dependence of the inhibition was observed
"NCCC(=O)c1ccccc1N [kynuramine, reference compound]",Km,"human recombinant MAO B; read-out: KM for MAO B, substrate, human recombinant MAO B",27 ± 4 µM
same,Km,"[2]; read-out: apparent KM in LN-229 lysates, substrate, Michaelis–Menten fit",25 ± 3 µM
COc1ccccc1CNCCCCCCN1C(=O)c2ccc3c4c(ccc(c24)C1=O)C(=O)N(CCCCCCNCc1ccccc1OC)C3=O [Compound 7],Mode of inhibition of MAO B,human recombinant MAO B,mainly competitive/mixed
same,Ki,human recombinant MAO B; [7],4200 ± 300 nM
same,GI50,"[1]; Homo sapiens, LN-229, 48 h",400 ± 100 nM
same,Ki,human recombinant MAO A; [11],3200 ± 200 nM
"C#CCN(C)[C@H](C)Cc1ccccc1 [Deprenyl, deprenyl]",Residual MAO activity in lysates,[2]; [12],0.74 ± 0.04
"C#CCN(C)CCCOc1ccc(Cl)cc1Cl [Clorgyline, clorgyline]",Residual MAO activity in lysates,[2]; [12],0.34 ± 0.10
"COc1ccccc1CNCCCCCCNCCCCCCCCNCCCCCCNCc1ccccc1OC [Compound 1, methoctramine, reference compound]",Inhibition of VAP-1,human VAP-1 [4],very poorly active
same,Ki,human recombinant MAO B; [7],470000 ± 50000 nM
same,Inhibition of SMOX,murine SMOX,more effective than 2
same,GI50,[1]; Homo sapiens,> 20000 nM
same,Ki,human recombinant MAO A; [11],290000 ± 60000 nM
C[C@H](NCc1ccc(OCc2cccc(F)c2)cc1)C(N)=O [Safinamide],Residual MAO activity in lysates,[2]; [13],0.66 ± 0.04
"COc1ccc2c(c1)[nH]c1c(C)nccc12 [Harmine, reference compound]",Ki,"human recombinant MAO B; MAO B Ki, human recombinant MAO B, kynuramine 10 μM, […], mean ± S.D.",> 10000 nM
same,Residual MAO activity in lysates,[2]; [13],0.37 ± 0.08
